The source of these data is US20160045505A1, “COMPOUNDS AND COMPOSITIONS FOR THE TREATMENT OF PARASITIC DISEASES” (NOVARTIS AG, priority 2013, published 2016).

A word on the pEC50: it is the negative decadic logarithm of the EC50, by convention in mol/L.

The test system of assay [1] is Leishmania donovani axenic amastigote parasites. In words: Leishmania donovani axenic amastigote proliferation assay (Cell TiterGlo luminescence, 2 day incubation). In kind it is cell-based. The conditions noted are these: Leishmania donovani, read-out: L. donovani amastigotes EC50. Background: In ATP-based viability assays light output follows the ATP content of the culture.

In assay [2] the test system is Trypanosoma brucei Lister 427 strain, bloodstream form. In words: Assay for proliferation of kinetoplastid parasite Trypanosoma brucei (Cell Titer Glo, 48 hours). In kind it is cell-based. The conditions noted are these: Trypanosoma brucei, T. brucei Lister 427 bloodstream form, read-out: T. brucei EC50. In a few lines: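 Bloodstream-form T. brucei Lister 427 in HMI-9 medium was exposed to compound (DMSO vehicle) for 48 hours at 37° C, 5% CO2. Parasite growth was read as ATP by CellTiter-Glo luminescence, with EC50 calculated from percent inhibition.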

The subject of assay [3] is L. donovani HU3 strain in mouse peritoneal macrophages. The assay is described as follows: Assay for proliferation of Leishmania parasites in infected mouse peritoneal macrophages (SybrGreen staining, high-content imaging, 5 days). In kind it is cell-based, Leishmania donovani. The conditions noted are these: Leishmania donovani, Peritoneal macrophage, L. donovani in mouse peritoneal macrophages, read-out: L. donovani Macrophage EC50.

Assay [4] has as its system Trypanosoma cruzi amastigotes (Tulahuen strain expressing Lac-Z) cultured in 3T3 fibroblast cells. The assay is described as follows: microbe, parasite or virus in culture. In kind it is cell-based. The conditions noted are these: Trypanosoma cruzi, TULAHUEN, Fibroblast, T. cruzi amastigotes in 3T3 fibroblast cells, read-out: T cruzi EC50.
[5] abbreviates: axenic amastigotes, inhibition of proliferation.

SMILES strings stand for the structures. pEC50: −log10 of the molar value. Read-outs that look alike come from different tables or passages of the source.

On to `Cc1nc(C)c(C(=O)Nc2ccc(F)c(-c3cn4cc(NC(=O)C5CCN(C(C)C)CC5)cnc4n3)c2)o1` [Compound 194], for which the pEC50 is less than 4.60 in assay [1] (setting [5]), 4.53 in assay [2] (inhibition of proliferation), less than 4.30 in assay [3] (inhibition of proliferation) and less than 4.70 in assay [4] (inhibition of proliferation).
With `CC(C)OC(=O)Nc1ccc(F)c(-c2cn3cc(-c4ccccn4)cnc3n2)c1` [Compound 314], the pEC50 in assay [1] (setting [5]) was 7.34; in assay [2] (inhibition of proliferation) it was 7.29; in assay [3] (inhibition of proliferation), 7.02; in assay [4] (inhibition of proliferation) it was 7.82.
Taken in the same sequence, the figures for `O=C1CC(C(=O)Nc2cnc3nc(-c4cc(NC(=O)N5CCCC5)ccc4F)cn3c2)C1` [Compound 141] were 6.06, 5.87, 5.08 and less than 4.70.
Taken in the same sequence, the figures for `Cc1nc(C)c(C(=O)Nc2ccc(F)c(-c3cn4cc(-c5cccn5C(=O)OC(C)(C)C)cnc4n3)c2)o1` [Compound 364] were 6.55, 6.75, 6.81 and 6.66.
Consider `CC(C)OC(=O)Nc1cnc2nc(-c3cc(NC(=O)c4cncs4)ccc3F)cn2c1` [Compound 90], for which the pEC50 is 6.05 in assay [1] (setting [5]), 6.21 in assay [2] (inhibition of proliferation), 5.12 in assay [3] (inhibition of proliferation) and 5.83 in assay [4] (inhibition of proliferation).
With `Cc1nc(C)c(C(=O)Nc2ccc(F)c(-c3cn4cc(-c5nccn5C)cnc4n3)c2)o1` [Compound 427], the pEC50 was 6.63 in assay [1] (L. donovani axenic amastigotes), 6.79 in assay [2], 6.36 in assay [3] and 5.88 in assay [4].
Regarding `Cc1nc(C)c(C(=O)Nc2ccc(F)c(-c3cn4cc(NC(=O)C5CCOC(C(C)C)C5)cnc4n3)c2)o1` (stereo not drawn) [Compound 120], the pEC50 was 6.52 in assay [1] (setting [5]), 6.38 in assay [2] (inhibition of proliferation), 6.01 in assay [3] (inhibition of proliferation) and 6.12 in assay [4] (inhibition of proliferation).
Taken in the same sequence, the figures for `CC(C)OC(=O)Nc1cnc2nc(-c3cc(NC(=O)C4CC4)ccc3F)cn2c1` [Compound 240] were 5.93, 6.36, less than 4.30 and 6.22.
Taken in the same sequence, the figures for `CC(C)OC(=O)Nc1cnc2nc(-c3cc(NC(=O)c4ccn(C)n4)ccc3F)cn2c1` [Compound 98] were 6.19, 6.30, 5.48 and 6.26.
With `Cc1nc(C)c(C(=O)Nc2ccc(F)c(-c3cn4cc(-c5cncc(F)c5)cnc4n3)c2)o1` [Compound 443], the pEC50 was 7.09 in assay [1] (L. donovani axenic amastigotes), 7.47 in assay [2], 6.84 in assay [3] and 6.99 in assay [4].
Take `O=C(Nc1ccc(F)c(-c2cn3cc(F)cnc3n2)c1)N1CC[C@@H](F)C1` [Compound 234]: the pEC50 was 6.66 in assay [1] (setting [5]), 6.82 in assay [2] (inhibition of proliferation), 6.13 in assay [3] (inhibition of proliferation) and 6.81 in assay [4] (inhibition of proliferation).
Taken in the same sequence, the figures for `Cc1nc(C)c(C(=O)Nc2ccc(F)c(-c3cn4cc(NC(=O)OCC(C)C)cnc4n3)c2)o1` [Compound 308] were 6.68, 6.88, 6.47 and 6.48.
With `Cc1nc(C)c(C(=O)Nc2ccc(F)c(-c3cn4cc(NC(=O)C5CC5)cnc4n3)c2)o1` [Compound 248], the pEC50 was 6.72 in assay [1] (setting [5]), 6.77 in assay [2] (inhibition of proliferation), 6.39 in assay [3] (inhibition of proliferation) and less than 4.70 in assay [4] (inhibition of proliferation).
Regarding `CCCC(=O)OCN(C(=O)OC(C)C)c1cnc2nc(-c3cc(NC(=O)c4oc(C)nc4C)ccc3F)cn2c1` [Compound 556], the pEC50 in assay [1] (L. donovani axenic amastigotes) was 7.20; in assay [2] it was 7.15; in assay [3], 7.00; in assay [4], 6.50.
On the same counts, the results for `CCN(CC)c1cnc2nc(-c3cc(NC(=O)c4oc(C)nc4C)ccc3F)cn2c1` [Compound 471] are 6.22, 6.80, 6.20 and 6.83.
On to `O=C(Nc1cnc2nc(-c3cc(NC(=O)N4CCCC4)ccc3F)cn2c1)[C@@H]1CCCO1` [Compound 135], for which the pEC50 in assay [1] (setting [5]) was 6.59; in assay [2] (inhibition of proliferation), 6.97; in assay [3] (inhibition of proliferation) it was 5.51; in assay [4] (inhibition of proliferation), 5.42.
As for `CC(=O)Nc1cnc2nc(-c3cc(NC(=O)c4cnc(C)o4)ccc3F)cn2c1` [Compound 206], the pEC50 in assay [1] (setting [5]) was 5.50; in assay [2] (inhibition of proliferation) it was less than 4.30; in assay [3] (inhibition of proliferation), less than 4.30; in assay [4] (inhibition of proliferation), less than 4.70.
Consider `Cc1nc(C)c(C(=O)Nc2ccc(F)c(-c3cn4cc(NCC(C)(C)C)cnc4n3)c2)o1` [Compound 465], for which the pEC50 was 6.48 in assay [1] (L. donovani axenic amastigotes), 6.82 in assay [2], 6.54 in assay [3] and 6.84 in assay [4].
As to `Cc1nc(C)c(C(=O)Nc2ccc(F)c(-c3cn4cc(NC(=O)C5CNCCCO5)cnc4n3)c2)o1` (stereo not drawn) [Compound 182], the pEC50 in assay [1] (setting [5]) is less than 4.60; in assay [2] (inhibition of proliferation), 4.97; in assay [3] (inhibition of proliferation) it was less than 4.30; in assay [4] (inhibition of proliferation), less than 4.70.
In the case of `CC(C)c1cnc2nc(-c3cc(NC(=O)N4CC[C@@H](F)C4)ccc3F)cn2c1` [Compound 418], the pEC50 in assay [1] (L. donovani axenic amastigotes) is 7.54; in assay [2] it was 8.10; in assay [3] it was 7.15; in assay [4] it was 7.82.
Taken in the same sequence, the figures for `CCc1cnc2nc(-c3cc(NC(=O)c4oc(C)nc4C)ccc3F)cn2c1` [Compound 423] were 7.05, 7.46, 6.66 and 7.32.
With `CC(C)OC(=O)Nc1cnc2nc(-c3cc(NC(=O)CN4CCCC4)ccc3F)cn2c1` [Compound 110], the pEC50 in assay [1] (setting [5]) is less than 4.60; in assay [2] (inhibition of proliferation), 4.56; in assay [3] (inhibition of proliferation), 5.09; in assay [4] (inhibition of proliferation), 5.02.
Consider `Cc1nc(C)c(C(=O)Nc2ccc(F)c(-c3cn4cc(-c5ccc(F)cn5)cnc4n3)c2)o1` [Compound 431], for which the pEC50 in assay [1] (L. donovani axenic amastigotes) was 7.10; in assay [2], 6.83; in assay [3] it was 6.07; in assay [4], 7.34.
Take `CNc1ccc(-c2cnc3nc(-c4cc(NC(=O)c5oc(C)nc5C)ccc4F)cn3c2)nc1` [Compound 432]: the pEC50 in assay [1] (L. donovani axenic amastigotes) is 7.92; in assay [2] it was 7.74; in assay [3], 7.48; in assay [4], 7.68.
Taken in the same sequence, the figures for `Cc1nc(C)c(C(=O)Nc2ccc(F)c(-c3cn4cc(C#CCCN5CCOCC5)cnc4n3)c2)o1` [Compound 544, N-(4-fluoro-3-(6-(4-morpholinobut-1-yn-1-yl)imidazo[1,2-a]pyrimidin-2-yl)phenyl)-2,4-dimethyloxazole-5-carboxamide] were 5.39, less than 4.30, 4.72 and 5.40.
As to `CC(C)OC(=O)Nc1cnc2nc(-c3cc(NC4=NCC(C)O4)ccc3F)cn2c1` (stereo not drawn) [Compound 501], the pEC50 was less than 4.60 in assay [1] (L. donovani axenic amastigotes), 5.50 in assay [2], less than 4.30 in assay [3] and 4.98 in assay [4].
On the same counts, the results for `Cc1nc(C)c(C(=O)Nc2ccc(F)c(-c3cn4cc(-c5cc(F)ccn5)cnc4n3)c2)o1` [Compound 435] are 7.72, 7.38, 7.31 and 7.80.
